The values below are quoted from earlier work in US20240400784A1, “Method for Screening Solvent for Extracting Polyvinyl Chloride, Method for Recycling Waste, Recycled Polyvinyl Chloride, and Composition” (LG Chem, Ltd., priority 2021, published 2024).

For this data set the following is noted: value in Table 1 of Document #1; swollen PVC and solvent volume based on PVC volume.
Turning to `CCCC(C)=O` [2-Pentanone], the PVC swelling ratio is listed as 12.69.

Consider `c1ccccc1` [Benzene], for which the PVC swelling ratio is 1.07. In the case of Water, the PVC swelling ratio was 1. For `C1CCCCC1` [Cyclohexane], the PVC swelling ratio is reported as 1.04. For the compound `CCCCCO` [1-Pentanol], the PVC swelling ratio is 1.02. On to `CC(=O)CC(C)C` [4-Methylpentan-2-one], for which the PVC swelling ratio was 7.06. For `CCOC(C)=O` [Ethyl acetate], the PVC swelling ratio was 2.38. Turning to `OC1CCCCC1` [Cyclohexanol], the PVC swelling ratio is 1.1.
